Experimental data: PubChem BioAssay AID651801 (Broad Institute, 2012)
Activity calls are given as the source filed them.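 The calls were made as follows: active = signal falling with dose and AC50 at most twice the top valid tested dose; inconclusive = flat fit with inhibition of 30 to 70%, or poor fit; inactive = the rest, plus effects in the rising direction.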

Target: Kelch-like ECH-associated protein 1 (Homo sapiens) (UniProt Q14145)
Test: Keap1-Nrf2 protein-protein interaction inhibitors, dose response, biochemical, fluorescence polarization, dry powder, set 2 (AID 651801)
Settings: Keap1 Kelch/FITC-Nrf2 peptide fluorescence polarization

Chain of Kelch-like ECH-associated protein 1 (Homo sapiens) (Q14145 whole entry, looked up): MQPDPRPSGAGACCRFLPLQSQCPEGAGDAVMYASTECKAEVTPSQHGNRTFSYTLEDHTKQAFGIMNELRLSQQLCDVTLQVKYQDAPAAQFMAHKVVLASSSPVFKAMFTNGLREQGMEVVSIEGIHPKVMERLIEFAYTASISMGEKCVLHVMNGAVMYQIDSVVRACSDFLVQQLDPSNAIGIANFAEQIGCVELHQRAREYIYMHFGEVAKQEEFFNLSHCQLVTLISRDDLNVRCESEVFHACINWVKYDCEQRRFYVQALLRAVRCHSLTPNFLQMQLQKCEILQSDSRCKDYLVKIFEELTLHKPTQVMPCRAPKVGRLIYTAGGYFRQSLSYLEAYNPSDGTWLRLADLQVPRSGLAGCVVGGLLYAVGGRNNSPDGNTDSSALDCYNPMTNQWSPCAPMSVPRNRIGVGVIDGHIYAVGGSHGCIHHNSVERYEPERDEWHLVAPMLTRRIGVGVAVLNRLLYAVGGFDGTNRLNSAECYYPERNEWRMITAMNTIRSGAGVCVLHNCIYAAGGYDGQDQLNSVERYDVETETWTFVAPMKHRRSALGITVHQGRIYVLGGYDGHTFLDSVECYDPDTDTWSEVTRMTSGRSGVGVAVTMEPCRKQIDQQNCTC

activity change, negative = inhibition (at 50 µM (top of the series)) | Compound | further results
inactive | O=C1c2ccccc2C(=O)N1C[C@@H]1c2ccccc2CCN1C(=O)C1CCCCC1 | 
inactive | Cc1cc(C)c(S(=O)(=O)Nc2cc(C(C(=O)OCc3ccccc3)C(=O)OCc3ccccc3)c(O)c3ccccc23)c(C)c1 | 
inactive | Cc1ccc(S(=O)(=O)NC(=O)[C@@H]2c3ccccc3CCN2C(=O)[C@@H]2CCCC[C@@H]2C(=O)O)cc1 | AC50: > 100 µM (inactive)
inactive | COC(=O)C1CCCCC1C(=O)N1CCc2ccccc2C1CN1C(=O)c2ccccc2C1=O (stereo not drawn) | 
inactive | CCOC(=O)C(C(=O)OCC)c1nc(NS(=O)(=O)c2c(C)cc(C)cc2C)c2ccccc2n1 | 
inactive | O=C(O)[C@H]1CCCC[C@H]1C(=O)N1CCc2ccccc2C1 (racemic) | 
inactive | Cc1cc(C)c(S(=O)(=O)Nc2ncnc3ccccc23)c(C)c1 | 
 | O=C(O)[C@H]1C2C=CC(C2)[C@H]1C(=O)N1CCc2ccccc2C1CN1C(=O)c2ccccc2C1=O (stereo partly drawn) | AC50: > 100 µM (inactive)
inactive | O=C(O)C1CCCCC1C(=O)NCC1c2ccccc2CCN1C(=O)Cc1ccccc1 (stereo not drawn) | 
 | O=C(O)C1CCCCC1C(=O)N1CCc2ccccc2C1CN1Cc2ccccc2C1=O (stereo not drawn) | AC50: 23.6 µM
inactive | O=C(O)[C@H]1CCCC[C@H]1C(=O)NC(CN1C(=O)c2ccccc2C1=O)c1ccccc1 (stereo partly drawn) | 
inactive | C[C@H](NC(=O)C1CCCC[C@H]1C(=O)O)c1ccccc1 (mixture of isomers) | 
inactive | O=C(NCCCN1CCOCC1)c1ccccc1C(=O)NC[C@@H]1c2ccccc2CCN1C(=O)C1CCCCC1C(=O)O (stereo partly drawn) | 
inactive | C[C@@H](NC(=O)C1CCCC[C@H]1C(=O)O)c1ccccc1 (mixture of isomers) | 
inactive | O=C(O)C1CCCCC1C(=O)N1CCc2ccccc2C1c1ccccc1 (stereo not drawn) | 
inactive | O=C(O)[C@H]1CCCC[C@H]1C(=O)N1CCc2ccccc2[C@H]1CNS(=O)(=O)c1ccccc1 | 
inactive | Cc1ccc(S(=O)(=O)NNc2nc(N3CC(O)CC3C(=O)O)nc3ccccc23)cc1 (stereo not drawn) | 
inactive | CC(C)CNc1nc(NS(=O)(=O)c2ccccc2)c2ccccc2n1 | 
inactive | COC(=O)CNc1nc(NS(=O)(=O)c2c(C)cc(C)cc2C)c2ccccc2n1 | 
inactive | Cc1ccc(S(=O)(=O)NNc2nc(NCC(N)=O)nc3ccccc23)cc1 | 
 | Cc1ccc(S(=O)(=O)Nc2cc(C(C(=O)OC(C)C)C(=O)C(F)(F)F)c(O)c3ccccc23)c(C)c1 (stereo not drawn) | AC50: 2.43 µM
inactive | Cc1cc(C)c(S(=O)(=O)Nc2nc(C(C(=O)OC(C)C)C(=O)C(F)(F)F)nc3ccccc23)c(C)c1 (stereo not drawn) | 
inactive | O=C(NC[C@@H]1c2ccccc2CCN1C(=O)[C@@H]1CCCC[C@@H]1C(=O)O)OCC1c2ccccc2-c2ccccc21 | 
 | Cc1ccccc1S(=O)(=O)Nc1cc(C(C(=O)OC(C)C)C(=O)C(F)(F)F)c(O)c2ccccc12 (stereo not drawn) | AC50: 3.56 µM
inactive | O=C(O)[C@H]1CCCC[C@H]1C(=O)N1CCc2ccccc2C1CCN1C(=O)c2ccccc2C1=O (stereo partly drawn) | 
inactive | O=C1c2ccccc2C(=O)N1C[C@@H]1c2ccccc2CCN1C(=O)OCc1ccccc1 | 

activity change, negative = inhibition (at 50 µM (top of the series)) | Compound | further results
inactive | NC(=O)[C@H]1CCCC[C@H]1C(=O)N1CCc2ccccc2[C@H]1CN1C(=O)c2ccccc2C1=O | 
 | O=C(NCCO)c1ccccc1C(=O)NC[C@@H]1c2ccccc2CCN1C(=O)C1CCCCC1C(=O)O (stereo partly drawn) | AC50: > 100 µM (inactive)
inactive | O=C(Oc1cc(CN2C(=O)c3ccccc3C2=O)c2ccccc2[n+]1[O-])c1cccc(Cl)c1 | 
inactive | O=C(NC[C@@H]1c2ccccc2CCN1C(=O)[C@@H]1CCCC[C@@H]1C(=O)O)c1ccccc1CO | 
inactive | O=C(Cc1ccccc1)NC[C@@H]1c2ccccc2CCN1C(=O)[C@@H]1CCCC[C@@H]1C(=O)O | 
inactive | Cc1ccc(S(=O)(=O)NC[C@@H]2c3ccccc3CCN2C(=O)[C@@H]2CCCC[C@@H]2C(=O)O)c(C)c1 | 
 | O=C(O)Cc1ccccc1C(=O)N1CCc2ccccc2[C@H]1CN1C(=O)c2ccccc2C1=O | AC50: 23.6 µM
 | O=C(NCCc1ccccc1)c1ccccc1C(=O)NC[C@@H]1c2ccccc2CCN1C(=O)C1CCCCC1C(=O)O (stereo partly drawn) | AC50: > 100 µM (inactive)
inactive | O=C(O)CCCC(=O)N1CCc2ccccc2C1CN1C(=O)c2ccccc2C1=O (stereo not drawn) | 
 | CC(C)OC(=O)C(C(=O)C(F)(F)F)c1cc(NS(=O)(=O)c2ccccc2)c2ccccc2c1O (stereo not drawn) | AC50: 30 µM
inactive | O=C(O)[C@H]1CCCC[C@H]1C(=O)N1CCc2ccccc2[C@H]1CNS(=O)(=O)c1ccc([N+](=O)[O-])cc1 | 
 | O=C(O)C1CCCCC1C(=O)N1CCc2ccccc2C1CN1C(=O)Cc2ccccc2C1=O (stereo not drawn) | AC50: > 100 µM (inactive)
inactive | Cc1ccc(S(=O)(=O)NNc2nc(C(C(=O)OC(C)C)C(=O)C(F)(F)F)nc3ccccc23)cc1 (stereo not drawn) | 
 | CC(=O)Nc1cc(NS(=O)(=O)c2c(C)cc(C)cc2C)c2ccccc2c1O | AC50: 9.18 µM
inactive | O=C(O)[C@H]1CCCC[C@H]1C(=O)N1CCC2=C(CCCC2)C1CN1C(=O)c2ccccc2C1=O (stereo partly drawn) | AC50: > 100 µM (inactive)
inactive | O=C(NC[C@@H]1c2ccccc2CCN1C(=O)[C@@H]1CCCC[C@@H]1C(=O)O)c1ccccc1 | 
inactive | CCOC(=O)Cc1nc(NS(=O)(=O)c2c(C)cc(C)cc2C)c2ccccc2n1 | 
inactive | O=C1c2ccccc2C(=O)N1CC1=NCCc2ccccc21 | 
inactive | CCOC(=O)C(C(=O)OCC)c1cc(CNS(=O)(=O)c2ccc(C)cc2C)c2ccccc2n1 | 
 | COC(=O)C(C(=O)OC)c1cc(NS(=O)(=O)c2c(C)cc(C)cc2C)c2ccccc2c1O | AC50: 39.5 µM
inactive | O=C(O)[C@H]1CCCC[C@H]1C(=O)N1CCc2ccccc2[C@H]1CNc1nc(Cl)nc2ccccc12 | 
inactive | O=C(O)CC(=O)N1CCc2ccccc2C1CN1C(=O)c2ccccc2C1=O (stereo not drawn) | 
inactive | COc1ccc(CCN=C2C=C(NS(=O)(=O)c3c(C)cc(C)cc3C)c3ccccc3C2=O)cc1 | 
inactive | COc1ccccc1CCNC(=O)[C@@H]1c2ccccc2CCN1C(=O)C1CCCCC1C(=O)O (stereo partly drawn) | 
 | Cc1ccc(S(=O)(=O)Nc2cc(C(C(=O)OC(C)C)C(=O)C(F)(F)F)c(O)c3ccccc23)cc1 (stereo not drawn) | AC50: 7.4 µM
inactive | COC(=O)[C@@H]1CCCC[C@@H]1C(=O)N1CCc2ccccc2[C@H]1CN1C(=O)c2ccccc2C1=O | 

activity change, negative = inhibition (at 50 µM (top of the series)) | Compound | further results
inactive | O=C(O)C1CCCCC1C(=O)Nc1ccccc1CN1C(=O)c2ccccc2C1=O (stereo not drawn) | 
inactive | COC(=O)[C@H]1CCCC[C@H]1C(=O)N1CCc2ccccc2[C@H]1CN1C(=O)c2ccccc2C1=O | 
 | O=C(O)C1CCCCC1C(=O)N1CCc2ccccc2C1CN1C(=O)[C@H]2CCCC[C@H]2C1=O (stereo partly drawn) | AC50: > 100 µM (inactive)
inactive | O=C(O)C1CCCCC1C(=O)N1CCCCC1CN1C(=O)c2ccccc2C1=O (stereo not drawn) | 
inactive | O=C(O)C1CCCCC1C(=O)N1CCc2ccccc2[C@H]1C(=O)NC12CC3CC(CC(C3)C1)C2 (stereo partly drawn) | 
inactive | CCOC(=O)C(C(=O)OCC)c1cc(CN2C(=O)c3ccccc3C2=O)c2ccccc2n1 | 
inactive | Cc1ccc(S(=O)(=O)NC2=CC(=N[C@@H](C)C(=O)OC(C)(C)C)C(=O)c3ccccc32)c(C)c1 | 
inactive | O=C(NC[C@@H]1c2ccccc2CCN1C(=O)[C@@H]1CCCC[C@@H]1C(=O)O)c1ccc(CCl)cc1 | 
inactive | O=C1c2ccccc2C(=O)N1C[C@H]1NCCc2ccccc21 | 
 | NC(=O)c1ccccc1C(=O)NC[C@@H]1c2ccccc2CCN1C(=O)[C@@H]1CCCC[C@@H]1C(=O)O | AC50: > 100 µM (inactive)
inactive | O=C(O)C1CCCCC1C(=O)N1CCc2ccccc2[C@H]1C(=O)NCCc1ccccc1 (stereo partly drawn) | 
inactive | O=C(O)c1ccccc1C(=O)NC[C@@H]1c2ccccc2CCN1C(=O)[C@@H]1CCCC[C@@H]1C(=O)O | 
 | Cc1cc(C)c(S(=O)(=O)Nc2cc(C(C(=O)OC(C)C)C(=O)C(F)(F)F)c(O)c3ccccc23)c(C)c1 (stereo not drawn) | AC50: 0.798 µM
inactive | O=C(O)[C@@H]1CCCN1C(=O)N1CCc2ccccc2[C@H]1CN1C(=O)c2ccccc2C1=O | 
inactive | C=CC(=O)NC[C@@H]1c2ccccc2CCN1C(=O)[C@@H]1CCCC[C@@H]1C(=O)O | 
inactive | O=C(O)/C=C\C(=O)N1CCc2ccccc2C1CN1C(=O)c2ccccc2C1=O (stereo not drawn) | 
inactive | COC(=O)[C@@H]1CCCC[C@@H]1C(=O)N1CCc2ccccc2[C@@H]1CN1C(=O)c2ccccc2C1=O | 
inactive | O=S(=O)(Nc1nc(NCC2CCCCC2)nc2ccccc12)c1ccccc1 | 
 | O=C1c2ccccc2C(=O)N1CC1c2ccccc2CCN1C(=O)Cc1ccccc1 (stereo not drawn) | activity change, negative = inhibition (at 12 µM (top of the series)): inactive
inactive | O=C(O)c1ccccc1C(=O)N1CCc2ccccc2C1CN1C(=O)c2ccccc2C1=O (stereo not drawn) | 
inactive | Cc1cc(C)c(S(=O)(=O)Nc2nc(N(C)C)nc3ccccc23)c(C)c1 | 
inactive | Cc1cc(C)c(S(=O)(=O)Nc2nc(NCCO)nc3ccccc23)c(C)c1 | 
inactive | O=C(O)CCC(=O)N1CCc2ccccc2C1CN1C(=O)c2ccccc2C1=O (stereo not drawn) | 
 | O=C(NC[C@@H]1c2ccccc2CCN1C(=O)[C@@H]1CCCC[C@@H]1C(=O)O)c1ccc(CN2CCOCC2)cc1 | AC50: > 100 µM (inactive)
